Assay results from patent US12296048B2, “Polymer particles for neutrophil injury” (THE REGENTS OF THE UNIVERSITY OF MICHIGAN, priority 2019, dated 2025).

Test system: mice with LPS-induced ALI
Format: in vivo
Experimental: In a lipopolysaccharide (LPS) mouse model of ALI, LPS administered to the lungs of healthy mice induces rapid recruitment of neutrophils into the lungs.
Poly-A microspheres were injected into the tail vein of mice with LPS-induced ALI at 30 mg/kg.
Male BALB/c or C57BL/6J mice were anesthetized with inhaled isoflurane, and given 50 μL of 0.4 mg/mL LPS orotracheally to induce lung inflammation. Particles (2×10^8 in 100 μL PBS per mouse) were injected at either 2 hrs or 6 hrs post-instillation via tail vein catheter. Methods of euthanasia and sample processing are shared with the P. Aeruginosa model (below) except instead of cytospin BALF, cells were stained with CD45, CD11b, and Ly6G, and were fixed overnight before flow cytometry to determine the % of neutrophils and macrophages in each sample.

CC(=O)Oc1ccccc1C(=O)O [aspirin]
BALF concentration of KC (LPS-ALI mice): not | BALF concentration of MIP2 (LPS-ALI mice): not | BALF neutrophil count compared to ALI mice with no particles (tail vein injection 1 hr after LPS, Poly-A 30 mg/kg, aspirin in DMSO): did not reduce
